Source: patent US20110213026A1, “EXTRACTS WITH LIVER-X-RECEPTOR MODULATORS, COMPOUNDS AND THEIR USE ESPECIALLY IN WEIGHT CONTROL” (INTERMED DISCOVERY GMBH, priority 2007, published 2011)

Legend:
[1] = biological target: T1, LXR ligand binding domain (GST-LXR LBD) (Homo sapiens, UniProt Q13133); assay: In vitro LXR assay (HTR-FRET, coactivator b-SRC1 recruitment); type: biochemical; conditions: FRET 12-point dose response
T1 sequence (Q13133 209-447): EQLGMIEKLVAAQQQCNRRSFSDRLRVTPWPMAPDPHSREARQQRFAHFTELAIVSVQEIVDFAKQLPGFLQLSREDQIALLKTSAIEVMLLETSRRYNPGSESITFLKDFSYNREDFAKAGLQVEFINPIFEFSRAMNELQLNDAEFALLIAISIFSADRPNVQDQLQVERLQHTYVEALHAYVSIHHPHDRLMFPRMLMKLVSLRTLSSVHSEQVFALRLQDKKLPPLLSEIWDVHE
Text: The LXR assay is configured using time-resolved fluorescence resonance energy transfer technology (HTR-FRET) (see Albers M, Blume B, Schlueter T, Wright MB, Kober I, Kremoser C, Deuschle U, Koegl M; “A novel principle for partial agonism of liver X receptor ligands. Competitive recruitment of activators and repressors”. J. Biol. Chem. 2006 24;281(8) 4920-30; and Chin J, Adams A D, Bouffard A, Green A, Lacson R G, Smith T, Fischer P A, Menke J G, Sparrow C P, Mitnaul L J; “Miniaturization of cell-based beta-lactamase-dependent FRET assays to ultra-high throughput formats to identify agonists of human liver X receptors”. Assay Drug Dev. Technol. 2003 1(6):777-87).
In the presence of an agonist, a fusion protein of glutathione S-transferase (GST) and LXR ligand binding domain (GST-LXR LBD) associates with a biotin-labeled nuclear receptor coactivator (b-SRC1). A fluorescent signal is detected in the presence of Eu-labeled anti GST antibodies and streptavidin-labeled allophycocyanin (APC). FRET is made possible by agonist-dependent close interaction of the test proteins.
Compounds which act as agonists at the LXR ligand binding domain are detected by an increase in time-resolved fluorescence. This LXR-FRET is performed as described by Albers et al. (loc. cit.).
FRET-active compounds are assayed in a FRET 12-point dose response experiment to determine the EC50—values of the compounds mentioned in the following table 9: […]

[2] = In vivo assay in rats: 8 week feeding study, body weight and body fat; design: species or system Sprague-Dawley (SD) rats; conditions: high fat diet, 0.1% in chow, 8 weeks, versus control groups
Protocol: The “further enriched extract” of Example 2 (also called IMD-XT0003 above and below), containing the LXRα active compounds is prepared and tested using six week old, none-adult, male Sprague-Dawley (SD) rats (Charles Rivers, Sulzfeld, Germany). The extract is mixed with the chow (ssniff Spezialdiäten GmbH, Soest, Germany) to a final concentration of 0.1% by weight and fed for 8 weeks in two different treatment regimes: • Balanced diet (standardised to 4% fat) • High fat diet (standardised 34% fat) Controls obtain the same diet without IMD-XT0003 or other anti-obesity additives. Body weight is studied and analysed every week, body fat and mineral bone density are analysed by DEXA (scanner, see Example 3) in week 0, in week 4 and at the last day of the study in week 8. Furthermore, the white body fat weight is determined after removal of the tissue at the end of the feeding study in week 8. For the DEXA measurements the same apparatuses and methodology are used as described in example 3. As a control experiment within the high fat diet, epigallocatechin-3-gallate (EGCG, Chengdu Purification Technology Development Co. Ltd, Chengdu, China) in pure form is used as the standard for comparison of potency and differentiation as well as benchmark against competing compounds or formulations against obesity. […]

NPFF2 receptor = NPFF2 receptor (Homo sapiens, UniProt Q9Y5X5); conditions: literature report; cited from earlier work
NPFF2 receptor, sequence (Q9Y5X5 whole entry): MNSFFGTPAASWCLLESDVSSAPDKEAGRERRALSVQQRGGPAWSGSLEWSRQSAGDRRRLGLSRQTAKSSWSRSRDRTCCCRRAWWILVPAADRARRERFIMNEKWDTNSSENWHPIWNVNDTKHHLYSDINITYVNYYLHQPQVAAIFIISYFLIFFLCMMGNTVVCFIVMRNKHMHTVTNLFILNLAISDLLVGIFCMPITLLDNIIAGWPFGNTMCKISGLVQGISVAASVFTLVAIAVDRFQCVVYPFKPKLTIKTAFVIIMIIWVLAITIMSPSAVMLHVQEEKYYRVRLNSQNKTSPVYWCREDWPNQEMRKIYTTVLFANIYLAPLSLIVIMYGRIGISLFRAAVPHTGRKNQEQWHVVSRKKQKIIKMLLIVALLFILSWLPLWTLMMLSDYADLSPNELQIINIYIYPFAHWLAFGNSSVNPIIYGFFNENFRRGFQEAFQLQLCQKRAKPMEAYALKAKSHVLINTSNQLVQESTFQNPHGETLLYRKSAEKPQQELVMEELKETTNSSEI

## COc1c2c(cc3c1-c1c(cc4c(c1OC)OCO4)CC(C)C(C)C3)OCO2 (stereo not shown) [Schizandrin C, 3,3′-Dimethoxy-4,5:4′,5′-bis(methylenedioxy)-2,2′-cyclolignan]
[1]
  EC50: 5.6 µM

## epigallocatechin-3-gallate [EGCG]
[2]
  body fat accumulation: No effects
  body weight accumulation: No effects

## COc1cc2c(c(OC)c1OC)-c1c(cc(OC)c(OC)c1OC)[C@H](OC(=O)c1ccccc1)[C@@](C)(O)[C@@H](C)C2 [benzoylgomisin Q]
NPFF2 receptor
  NPFF2 receptor agonism: potent NPFF2 receptor agonists

## COc1cc2c(c(OC)c1OC)-c1c(cc3c(c1OC)OCO3)CC(C)C(C)C2 (stereo not shown) [Gomisin N, 3,3,4,5-Tetramethoxy-4′,5′-methylenedioxy-2,2′-cyclolignan]
[1]
  EC50: 10.6 µM

## COc1cc2c(c(OC)c1OC)-c1c(cc(OC)c(OC)c1OC)CC(C)C(C)C2 (stereo not shown) [Desoxyschizandrol A, 3,3′,4,4′,5,5′-Hexamethoxy-2,2′-cyclolignan]
[1]
  EC50: > 10 µM

## COc1cc2c(c(OC)c1OC)-c1c(cc3c(c1OC)OCO3)[C@H](OC(=O)c1ccccc1)[C@@](C)(O)[C@@H](C)C2 [Gomisin G]
NPFF2 receptor
  NPFF2 receptor agonism: potent NPFF2 receptor agonists
